Measurements from patent US20230286973A1, “PROTEIN SECRETION INHIBITORS” (KEZAR LIFE SCIENCES, priority 2020, published 2023).

Experiments:
[1] = system: PD1-ss+10aa/Gaussia Luciferase; experiment: Dox-Induced PD1-ss-Gluc Assay; type: cell-based; settings: 24 hr Dox induction; 293FRT/TO cells; mean; read-out: 24 hr Dox Inducible PD1ssGluc 293FRT/TO: Mean IC50
Outline: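 Stable Flp-In 293 T-REx cells carried a doxycycline-inducible construct of Gaussia luciferase fused to the PD1 signal sequence plus 10 amino acids. Cells were plated the day before, then treated with compound dilutions in DMSO/media containing doxycycline at 37 °C, 5% CO2.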

[2] = system: TNFα-FL/Gaussia Luciferase; experiment: Dox Induced TNFα-FL-Gluc Assay; type: cell-based; settings: for IC50: 24 hr Dox induction, 293FRT/TO cells, mean, read-out: 24 hr Dox Inducible TNFaFLGluc 293FRT/TO: Mean IC50; for 24 hr Dox Inducible TNFaFLGluc 293FRT/TO: TNF/PD1: ratio of TNFaFLGluc IC50 to PD1ssGluc IC50, '<=>' given where both are I.A.
Outline: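 Flp-In 293 T-REx cells stably expressing full-length TNFα (aa 1-233) fused at its C-terminus to Gaussia luciferase under tetracycline-regulated control were plated the day before assay. Compound dilutions in DMSO/media containing doxycycline were added and incubated at 37 °C, 5% CO2. Unspecified stereochemistry denotes stereoisomer mixtures.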

[3] = system: HER3-ss+4aa/Gaussia Luciferase; experiment: Dox-Induced Her3-ss-Gluc Assay; type: cell-based; settings: 24 hr Dox induction; 293FRT/TO cells; mean; read-out: 24 hr Dox Inducible Her3(ss + 4)Gluc 293FRT/TO: Mean IC50
Outline: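 Stable Flp-In 293 T-REx line expressing Gaussia luciferase fused to the HER3 signal sequence plus 4 amino acids under tetracycline-regulated (T-REx) control. Cells plated the day before, then treated with compound dilutions in DMSO/media containing doxycycline and incubated at 37° C., 5% CO2.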

[4] = system: IL-2-FL/Gaussia Luciferase; experiment: Dox Induced IL2-FL-Gluc Assay; type: cell-based; settings: for IC50: 24 hr Dox induction, 293FRT/TO cells, mean, read-out: 24 hr Dox Inducible IL2FLGluc 293FRT/TO: Mean IC50; for 24 hr Dox Inducible IL2FLGluc 293FRT/TO: IL2/PD1: ratio of IL2FLGluc IC50 to PD1ssGluc IC50, '<=>' given where both are I.A.
Outline: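 Flp-In 293 T-REx cells stably carrying doxycycline-inducible full-length IL-2 (aa 1-153) fused at its C-terminus to Gaussia luciferase, selected with hygromycin and blasticidin. Cells were plated the day before, then treated with compounds in DMSO/media containing doxycycline at 37° C, 5% CO2.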

[5] = system: multiple myeloma cell line NCI-H929; experiment: H929 Cell Viability Assay; type: cell-based, human; settings: Homo sapiens, NCI-H929, 48 h, NCI-H929 cells, Celltiter-Glo
Outline: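 NCI-H929 cells, resuspended in RPMI 1640 with 10% FBS and 2 mM glutamine, were treated with compound dilutions in DMSO/media and incubated 48 hours at 37° C, 5% CO2. Viability was read by CellTiter-Glo luminescence. Compounds drawn without stereochemistry were tested as stereoisomer mixtures.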

[6] = system: multiple myeloma cell line U266B1; experiment: U266 Cell Viability Assay; type: cell-based, human; settings: Homo sapiens, U-266, 48 h, U266B1 cells, Celltiter-Glo
Outline: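 Cells grown in RPMI 1640 with 10% FBS, 2 mM glutamine and penicillin/streptomycin were exposed to compound dilutions in DMSO/media for 48 hours at 37° C., 5% CO2. Viability was read by CellTiter-Glo luminescence. Undefined stereocentres mean data for stereoisomer mixtures.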

[7] = Liver Microsome Stability Assay (rat); settings: rat liver microsomes, with NADPH, 1.0 uM compound
Method: (§1) Stability of a compound was assessed in the presence of liver microsomes from various sources—mouse, rat, monkey and human liver microsomes. 1.0 uM compound, 0.4% DMSO in 0.1 M Potassium Phosphate with 1.0 mg/mL liver microsomes, were incubated at 37° C. with or without 1 mM NADPH. The samples were quenched at 0, and 30 minutes.

[8] = Liver Microsome Stability Assay (mouse); settings: mouse liver microsomes, with NADPH, 1.0 uM compound
Method: as §1

[9] = Liver Microsome Stability Assay (human); settings: human liver microsomes, with NADPH, 1.0 uM compound
Method: as §1

[10] = Liver Microsome Stability Assay (monkey); settings: monkey liver microsomes, with NADPH, 1.0 uM compound
Method: as §1

| Structure (SMILES) | IC50 [1] | IC50 [2] | IC50 [3] | IC50 [4] | EC50 [5] | EC50 [6] | Liver Microsome Stability (Multiple Species): Rat - % Remaining after 30 min w/NADPH [7] | Liver Microsome Stability (Multiple Species): Mouse - % Remaining after 30 min w/NADPH [8] | Liver Microsome Stability (Multiple Species): Human - % Remaining after 30 min w/NADPH [9] | Liver Microsome Stability (Multiple Species): Monkey - % Remaining after 30 min w/NADPH [10] | 24 hr Dox Inducible TNFaFLGluc 293FRT/TO: TNF/PD1 [2] | 24 hr Dox Inducible IL2FLGluc 293FRT/TO: IL2/PD1 [4] |
| --- | --- | --- | --- | --- | --- | --- | --- | --- | --- | --- | --- | --- |
| CC(CCC#N)n1cccc1C(=O)Nc1nc([C@H]2CCCN2c2ccccc2)cs1 (stereo partly drawn) [Compound C90, 1-(4-cyanobutan-2-yl)-N-(4-((R)-1-phenylpyrrolidin-2-yl)thiazol-2-yl)-1H-pyrrole-2-carboxamide] | 1.65 µM | 16.1 µM | 2.39 µM | 4.01 µM | > 25 µM | > 25 µM | 7.22% | 1.54% | 1.77% | 1.77% | 9.76 | 2.4 |
| O=C(Nc1nc([C@H]2CCCN2c2ccccc2)cs1)c1cccn1CCCC1CCOC1 (stereo partly drawn) [Compound C92, N-(4-((R)-1-phenylpyrrolidin-2-yl)thiazol-2-yl)-1-(3-(tetrahydrofuran-3-yl)propyl)-1H-pyrrole-2-carboxamide] | 2.21 µM | 24.5 µM | 3.01 µM | 5.55 µM | 22 µM | > 25 µM | 3.9% | 15.8% | 7.96% | 5.09% | 11.1 | 2.5 |
| N#CCc1ccccc1Cn1cccc1C(=O)Nc1nc([C@H]2CCCN2c2ccccc2)cs1 [Compound C93, (R)-1-(2-(cyanomethyl)benzyl)-N-(4-(1-phenylpyrrolidin-2-yl)thiazol-2-yl)-1H-pyrrole-2-carboxamide] | 4.27 µM | > 25 µM | 1.08 µM | 1.63 µM | > 25 µM | > 25 µM | 1.23% | 16.3% | 3.12% | 6.79% | >5.86 | 0.38 |
| O=C(Nc1nc([C@H]2CCCN2c2ccccc2)cs1)c1cccn1CC1CC(F)(F)C1 [Compound C94, (R)-1-((3,3-difluorocyclobutyl)methyl)-N-(4-(1-phenylpyrrolidin-2-yl)thiazol-2-yl)-1H-pyrrole-2-carboxamide] | 3.59 µM | > 25 µM | 2.4 µM | 3.66 µM | > 25 µM | > 25 µM | 20.7% | 52.1% | 63.4% | 10.6% | >6.97 | 1 |
| O=C(Nc1nc([C@H]2CCCN2c2ccccc2)cs1)c1cccn1CCC1COC1 [Compound C99, (R)-1-(2-(oxetan-3-yl)ethyl)-N-(4-(1-phenylpyrrolidin-2-yl)thiazol-2-yl)-1H-pyrrole-2-carboxamide] | 1.72 µM | 16.8 µM | 2.83 µM | 5.38 µM | 21.9 µM | > 25 µM | 4.12% | 19.1% | 26.1% | 0.26% | 9.72 | 3.1 |
| N#CC[C@H](O)Cn1cccc1C(=O)Nc1nc([C@H]2CCCN2c2ccccc2)cs1 [Compound C100, 1-((S)-3-cyano-2-hydroxypropyl)-N-(4-((R)-1-phenylpyrrolidin-2-yl)thiazol-2-yl)-1H-pyrrole-2-carboxamide] | 7.64 µM | > 25 µM | 15.9 µM | 6.46 µM | > 25 µM | > 25 µM | 13.6% | 19.8% | 19.1% | 18.5% | >3.27 | 0.85 |
| O=C(Nc1nc([C@H]2CCCN2c2ccccc2)cs1)c1cccn1Cc1ccnnc1 [Compound C102, (R)-N-(4-(1-phenylpyrrolidin-2-yl)thiazol-2-yl)-1-(pyridazin-4-ylmethyl)-1H-pyrrole-2-carboxamide] | 0.0442 µM | 0.984 µM | 0.109 µM | 0.0975 µM | 3.98 µM | 14.6 µM | 2.73% | 6.44% | 0.93% | 0.39% | 22.2 | 2.2 |

Further lines, with some results ahead:

| IC50 [1] | IC50 [2] | IC50 [3] | IC50 [4] | EC50 [5] | EC50 [6] | Liver Microsome Stability (Multiple Species): Rat - % Remaining after 30 min w/NADPH [7] | Liver Microsome Stability (Multiple Species): Mouse - % Remaining after 30 min w/NADPH [8] | Liver Microsome Stability (Multiple Species): Human - % Remaining after 30 min w/NADPH [9] | Liver Microsome Stability (Multiple Species): Monkey - % Remaining after 30 min w/NADPH [10] | Structure (SMILES) | 24 hr Dox Inducible TNFaFLGluc 293FRT/TO: TNF/PD1 [2] | 24 hr Dox Inducible IL2FLGluc 293FRT/TO: IL2/PD1 [4] |
| --- | --- | --- | --- | --- | --- | --- | --- | --- | --- | --- | --- | --- |
| 0.0934 µM | 1.24 µM | 0.127 µM | 0.345 µM | 4.21 µM | > 25 µM | 41.8% | 88.3% | 67.8% | 28.2% | O=C(Nc1nc([C@H]2CCCN2c2ccc(C(F)(F)F)cc2)cs1)c1cccn1CC1CCOCC1 [Compound C91, (R)-1-((tetrahydro-2H-pyran-4-yl)methyl)-N-(4-(1-(4-(trifluoromethyl)phenyl)pyrrolidin-2-yl)thiazol-2-yl)-1H-pyrrole-2-carboxamide] | 13.3 | 3.7 |
| 0.00505 µM | 0.104 µM | 0.0035 µM | 0.0155 µM | 0.127 µM | 19.6 µM | 1.89% | 0.28% | 0.44% | 0.11% | CCc1ccc(N2CCC[C@@H]2c2csc(NC(=O)c3cccn3Cc3ccncc3)n2)cn1 [Compound C95, (R)-N-(4-(1-(6-ethylpyridin-3-yl)pyrrolidin-2-yl)thiazol-2-yl)-1-(pyridin-4-ylmethyl)-1H-pyrrole-2-carboxamide] | 20.5 | 3.1 |
| 0.0637 µM | 0.943 µM | 0.0596 µM | 0.28 µM | 2.96 µM | > 25 µM | 0.76% | 6.58% | 0.07% | 0.13% | CCc1ccc(N2CCC[C@@H]2c2csc(NC(=O)c3cccn3CC3CCOCC3)n2)cn1 [Compound C96, (R)-N-(4-(1-(6-ethylpyridin-3-yl)pyrrolidin-2-yl)thiazol-2-yl)-1-((tetrahydro-2H-pyran-4-yl)methyl)-1H-pyrrole-2-carboxamide] | 14.8 | 4.4 |
